The text below walks through data of US4563479A, “Synergistic radiation protective pharmaceutical compositions” (Chinoin Gyogyszer es Vegyeszeti Termekek Gyar RT, priority 1979, dated 1986).

For series [1] the following is noted: cited from earlier work.
The conditions of series [2]: cited from earlier work. This is another data set of the same source.
In the next series the test system is mice. Nature of the series: Survival and survival coefficient "S" of irradiated mice (X-ray or 60Co gamma), Tables 2-4. In kind it is in vivo. The conditions noted are these: 140 mg/kg AET alone i.p. Here is the method: Experiments are carried out in mice. Irradiation was carried out with X-ray (rtg) and with gamma rays obtained from ^60 Co isotope. Survival was observed on the 30th day after irradiation and expressed by using survival coefficient "S" according to Kaluszyner. […] Mice were treated intraperitoneally.

Where a name gives a salt, the structure may show the parent alone. Read-outs that look alike come from different tables or passages of the source.

On to `N=C(N)NCCS` [mercaptoethyl-guanidine], for which the Therapeutic index in series [1] (LD50 p.o. / radiation protective dose) is on record as 1.75. Further, in series [2], the LD50 p.o. was 350 mg/kg.
`N=C(N)SCCN` [aminoethyl-isothiuronium-bromide-hydrobromide]: the LD50 p.o. in series [2] is 1200 mg/kg.
On to `N=C(N)SCCN` [AET, aminoethyl-isothiuronium-chloride-hydrochloride], for which the Survival % came out at 15% in the series on mice (X-ray (rtg) 630 R), 0% in the series with mice (X-ray (rtg) 800 R), 5% in the series with mice (gamma 900 rad) and 0% in the series on mice (gamma 1100 rad). For the same compound, the “Survival coefficient "S"” value in the series on mice (X-ray (rtg) 630 R) is 0.39; in the series on mice (X-ray (rtg) 800 R), 0.27; with mice (gamma 900 rad), 0.37; in the series with mice (gamma 1100 rad) it was 0.28. Also, the LD50 p.o. in series [2] (listed as aminoethyl-isothiuronium-chloride-hydrochloride) was 710 mg/kg.
For `Cl.N[C@@H](CS)C(=O)O` [cysteine-hydrochloride], in series [1] (in vivo), the Radiation protective dose is 1900 mg/kg.
